How the values were obtained:
RXRβ = biological target: T1, RXRβ (Homo sapiens, UniProt P28702); experiment: Gal4-hybrid reporter gene assay, RXRβ; type: cell-based; conditions: Gal4-hybrid reporter gene assay; for EC50: mean±S.E.M., n≥3
T1 construct: CMV-hRXRβ-LBD; expressed in transfected cells; host or cells: HEK293T
T1 sequence (P28702 296-529 limits assumed): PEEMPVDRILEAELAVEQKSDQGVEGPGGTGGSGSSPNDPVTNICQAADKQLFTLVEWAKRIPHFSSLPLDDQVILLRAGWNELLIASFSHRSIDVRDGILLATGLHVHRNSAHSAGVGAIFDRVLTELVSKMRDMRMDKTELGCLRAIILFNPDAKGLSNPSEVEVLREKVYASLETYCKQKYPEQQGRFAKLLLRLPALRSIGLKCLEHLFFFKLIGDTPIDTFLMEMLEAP
Experimental: modified Eagle’s medium (DMEM), high glucose supplemented with 10% fetal calf serum (FCS), sodium pyruvate (1 mM), penicillin (100 U/mL), and streptomycin (100 μg/mL) at 37 °C and 5% CO2 and seeded in 96-well plates (3×10^4 cells/well). After 24 h, the medium was changed to Opti-MEM without supplements, and the cells were transiently transfected using Lipofectamine LTX reagent (Invitrogen) according to the manufacturer’s protocol. Five hours after transfection, the cells were incubated with the test compounds in Opti-MEM supplemented with penicillin (100 U/mL), streptomycin (100 μg/mL), and 0.1% DMSO for 15 h before luciferase activity was measured using the Dual -Glo Luciferase Assay System (Promega) according to the manufacturer’s protocol on a Tecan Spark l uminometer (Tecan Deutschland GmbH, Germany). Firefly luminescence was divided by Renilla luminescence and multiplied by 1000, resulting in relative light units (RLU) to normalize for transfection efficiency and cell growth. Fold activation was obtained by dividing the mean RLU of a sample by the mean RLU of the untreated control. All samples were tested in at least three biologically independent experiments in duplicates. For dose –response curve fitting and calculation of EC50 values, the equation “[Agonist] vs. response – Variable slope (four parameters)” was used in GraphPad Prism (version 5.04, GraphPad Software, La Jolla, CA, USA). […] (10 μM, NR4A) and bexarotene (1 µM, NR2B) served as the positive control. […]
150 μM in the same buffer containing 2-4% DMSO) in 21–26 injections (1 × 1 μL and 20 × 4 to 25 × 4 μL) with an injection interval of 120 s. As control experiments, the test compounds were titrated to the buffer, and the buffer was titrated to the protein under otherwise identical conditions. The heat rates of the compound-Nurr1 LBD titrations were analyzed using NanoAnalyze software (TA Instruments, New Castle, DE) with an independent binding model.

RXRα LBD = biological target: T2, RXRα LBD (Homo sapiens, UniProt P19793); experiment: Isothermal titration calorimetry, recombinant RXRα LBD; type: binding; conditions: ITC
T2 construct: made in house
T2 sequence (P19793 227-458 limits assumed): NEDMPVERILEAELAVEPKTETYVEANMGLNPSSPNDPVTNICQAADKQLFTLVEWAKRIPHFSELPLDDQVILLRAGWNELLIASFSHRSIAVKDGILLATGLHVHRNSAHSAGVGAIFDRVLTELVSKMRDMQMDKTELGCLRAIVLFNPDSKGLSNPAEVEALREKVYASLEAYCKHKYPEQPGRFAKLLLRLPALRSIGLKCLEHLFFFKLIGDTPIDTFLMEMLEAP
Experimental: Isothermal titration calorimetry. ITC experiments for ligand binding to Nurr1 and RXR were conducted on an Affinity ITC instrument (TA Instruments, New Castle, DE) at 25 °C with a stirring rate of 75 rpm using recombinantly expressed ligand binding domain proteins as described previously5,6. The respective LBD protein (12–25 μM) in buffer (20 mM Tris pH 7.5, 100 mM NaCl, 5% glycerol) containing 2-4% DMSO was titrated with the test compounds (100-150 μM in the same buffer containing 2-4% DMSO) in 21–26 injections (1 × 1 μL and 20 × 4 to 25 × 4 μL) with an injection interval of 120 s. As control experiments, the test compounds were titrated to the buffer, and the buffer was titrated to the protein under otherwise identical conditions. The heat rates of the compound-Nurr1 LBD titrations were analyzed using NanoAnalyze software (TA Instruments, New Castle, DE) with an independent binding model.

Chemical stability = type: physicochemical; conditions: compared to 2

## Cc1c2c(n(-c3ccc(CC(=O)O)cc3)c1C)CCC(F)(F)C2 [compound 2]
RXRβ
  max. act. (RXR) β: 121±6 fold
  EC50: 4500 nM
RXRα LBD
  Kd: 1100 nM

## Cc1c(C)n(-c2ccc(CC(=O)O)cc2)c2ccc(F)cc12 [compound 3]
RXRβ
  max. act. (RXR) β: 103±6 fold
  EC50: 600 nM
RXRα LBD
  Kd: 200 nM
Chemical stability
  chemical stability: improved chemical stability

From PMC7618597, “Dual Nurr1/RXR agonism of valerenic acid and synthetic mimetics enables dimer-selective Nurr1 modulation” (ACS medicinal chemistry letters, 2025)
